Consider 20 compounds from patent US8314268B2, “1-phenylalkanecarboxylic acid derivatives for the treatment of neurodegenerative diseases” (Chiesi Farmaceutici S.p.A., priority 2003, dated 2012).

Test [1] has as its system Aβ42 release in H4-15× cells. The test is described as follows: Inhibition of Aβ42 release in the supernatant of H4-15× cells. Format: cell-based, human. As to conditions: for inhibition at 100 µM: Homo sapiens, H415, overnight (14-16 hours) incubation; for % inhibition of Aβ42 release: 100 μM, overnight (14-16 hours) incubation. The procedure:
H4-15× cells (human neuroglioma cells transfected with the human gene encoding for the precursor of β-amyloid protein APP695) were cultured in flasks (in incubator at 37° C., under aqueous vapour saturated atmosphere with 5% carbon dioxide), in the presence of hygromycin and blasticidin, which maintain the selective pressure for the cells continuously expressing the gene of interest.
When the cells reached about 90% confluency, they were collected and re-seeded in 24 wells plates (2×10^5 cells each), in 0.5 ml of complete culture medium. After approx. 24 hours, when the cells had adhered to the well surface and reached confluency, the medium of each well was replaced with 0.5 ml of fresh culture medium, supplemented with a compound (I) to 100 micromolar final concentration. Each tested concentration was repeated in triplicate. The molecules used for the treatment were previously dissolved in dimethylsulfoxide (DMSO) or in a dimethylsulfoxide/water mixture, the final concentration of DMSO in the wells not exceeding 1%. Thus the prepared plates were incubated again overnight (14-16 hours); afterwards the cell supernatant was taken from each well and Aβ42 and Aβ40 proteins were quantitated. The assay was carried out with an instrumentation for microplates chemoluminescence analysis, which allows to separately quantify the two proteins and is based on the immobilization of an analyte-antibody complex on paramagnetic microbeads. One of the antibodies of this complex is marked with a ruthenium compound which, upon electrochemical excitement, gives a light signal, having intensity proportional to the amount of analyte present.

Another test concerns the target T1, cyclooxygenase-1 (COX-1) (Rattus norvegicus, UniProt Q63921).
T1 construct: Aliquots of heparinized blood (500 μl) were preincubated with 100 μM concentration of the tested compounds; from tissue; host or cells: rat whole blood (heparinized, from the abdominal aorta)
T1 sequence (Q63921 27-602): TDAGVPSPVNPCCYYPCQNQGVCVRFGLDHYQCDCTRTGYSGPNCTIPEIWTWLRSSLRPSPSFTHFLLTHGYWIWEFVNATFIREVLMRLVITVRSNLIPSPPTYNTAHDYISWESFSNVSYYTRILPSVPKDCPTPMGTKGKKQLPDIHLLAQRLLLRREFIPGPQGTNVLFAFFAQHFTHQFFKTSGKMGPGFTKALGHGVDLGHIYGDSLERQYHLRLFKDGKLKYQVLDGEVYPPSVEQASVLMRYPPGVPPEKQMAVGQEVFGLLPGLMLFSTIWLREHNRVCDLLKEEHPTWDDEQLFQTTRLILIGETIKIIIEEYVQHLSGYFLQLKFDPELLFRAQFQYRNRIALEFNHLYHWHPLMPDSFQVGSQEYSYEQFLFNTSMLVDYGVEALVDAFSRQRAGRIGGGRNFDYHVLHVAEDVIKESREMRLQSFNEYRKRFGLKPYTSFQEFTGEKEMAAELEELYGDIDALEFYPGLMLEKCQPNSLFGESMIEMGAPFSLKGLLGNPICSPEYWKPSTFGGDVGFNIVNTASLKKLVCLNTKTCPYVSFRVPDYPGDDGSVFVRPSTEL
The test is described as follows: Inhibition of cyclooxygenase-1 (COX-1) in rat whole blood (TxB2 production). The note with it: for inhibition at 100 µM: read-out: % COX-1 inhibitory activity. The format is cell-based. How it is done: Whole blood was taken from the rat abdominal aorta and immediately placed in heparinized tubes. Aliquots of heparinized blood (500 μl) were preincubated with 100 μM concentration of the tested compounds or with the only carrier (DMSO) for 1 h at 37° C. Eicosanoid production was induced by addition of calcium ionophore A23187 (final concentration 5×10^−5 M) and was interrupted after 30 minute incubation by quickly placing the samples in dry ice. Thereafter, samples were centrifuged (12000 g×3 minutes a 4° C.) and the production of TxB2 thromboxane B2 was calculated by radioimmunoassay.

Where [2] appears, read: 100 μM, rat whole blood, calcium ionophore A23187-induced TxB2 production.

The structures appear in SMILES notation. Like-named read-outs stand apart in the source and are kept apart here.

With `CC(C)(C(=O)O)c1ccc(-c2ccc(C(F)(F)F)cc2)c(F)c1` [CHF 4810, 2-methyl-2(2-fluoro-4′-trifluoromethylbiphen-4-yl)propionic acid], the inhibition at 100 µM in test [1] worked out at 58%.
As for `CC(C)(C(=O)O)c1ccc(-c2ccc(C3CCCCC3)cc2)c(F)c1` [CHF 4961, 2-methyl-2(2-fluoro-4′cyclohexylbiphen-4-yl)propionic acid], the inhibition at 100 µM turned out to be 5.2% at cyclooxygenase-1 (COX-1) (setting [2]) and 76.6% in test [1].
In the same order, the values of `O=C(O)C1(c2ccc(-c3ccc(C(F)(F)F)cc3)c(F)c2)CC1` [CHF 5022, 1-(2-fluoro-4′-trifluoromethylbiphenyl-4-yl)cyclopropanecarboxylic acid] are 0% and 55.4%.
As to `O=C(O)C1(c2ccc(-c3cccc(OC(F)(F)F)c3)c(F)c2)CC1` [CHF 5045, 1-(2-fluoro-3′-trifluoromethoxybiphenyl-4-yl)cyclopropanecarboxylic acid], the inhibition at 100 µM on cyclooxygenase-1 (COX-1) (setting [2]) is 8.3%; in test [1], 56.4%.
Take `O=C(O)C1(c2ccc(-c3ccc(OC(F)(F)F)cc3)c(F)c2)CC1` [CHF 5046, 1-(2-fluoro-4′-trifluoromethoxybiphenyl-4-yl)cyclopropanecarboxylic acid]: the inhibition at 100 µM on cyclooxygenase-1 (COX-1) (setting [2]) turned out to be 2.6%; in test [1], 70.4%.
Regarding `O=C(O)C1(c2ccc(-c3cccc(C(F)(F)F)c3)c(F)c2)CC1` [CHF 5058, 1-(2-fluoro-3′-trifluoromethylbiphenyl-4-yl)cyclopropanecarboxylic acid], the figures for the inhibition at 100 µM (at cyclooxygenase-1 (COX-1) (setting [2]); in test [1]) were 0% and 54.8%, respectively.
In the same order, the values of `O=C(O)C1(c2ccc(-c3ccc(O)cc3)c(F)c2)CC1` [CHF 5070, 1-(2-fluoro-4′-hydroxybiphenyl-4-yl)cyclopropanecarboxylic acid] are 0% and 22.4%.
As for `O=C(O)C1(c2ccc(-c3ccc(OC4CCOCC4)cc3)c(F)c2)CC1` [CHF 5071, 1-[2-fluoro-4′-(tetrahydropyran-4-yloxy)biphenyl-4-yl]-cyclopropane-carboxylic acid], the results for the inhibition at 100 µM (at cyclooxygenase-1 (COX-1) (setting [2]); in test [1]) were 0.4% and 28.1%, respectively.
On to `O=C(O)C1(c2ccc(-c3ccc(F)c(F)c3)c(F)c2)CC1` [CHF 5073, 1-(2,3′,4′-trifluorobiphenyl-4-yl)cyclopropanecarboxylic acid], for which the results for the inhibition at 100 µM (on cyclooxygenase-1 (COX-1) (setting [2]); in test [1]) were 4.8% and 67.4%, respectively.
Turning to `O=C(O)C1(c2ccc(-c3ccc(Cl)c(Cl)c3)c(F)c2)CC1` [CHF 5074, 1-(3′,4′-dichloro-2-fluorobiphenyl-4-yl)cyclopropanecarboxylic acid], the results for the inhibition at 100 µM (on cyclooxygenase-1 (COX-1) (setting [2]); in test [1]) were 0.5% and 79.2%, respectively.
Take `O=C(O)C1(c2ccc(-c3ccc(F)c(Cl)c3)c(F)c2)CC1` [CHF 5076, 1-(3′-chloro-2,4′-difluorobiphenyl-4-yl)cyclopropanecarboxylic acid]: the figures for the inhibition at 100 µM (at cyclooxygenase-1 (COX-1) (setting [2]); in test [1]) were 5.5% and 71.4%, respectively.
As for `C#CCOc1ccc(-c2ccc(C3(C(=O)O)CC3)cc2F)cc1` [CHF 5078, 1-(2-fluoro-4′-prop-2-inyloxy-biphenyl-4-yl)-cyclopropanecarboxylic acid], at cyclooxygenase-1 (COX-1) (setting [2]), the “% COX-1 inhibitory activity” value turned out to be 3.6%. The “% inhibition of Aβ42 release” value in test [1] is recorded as 57.5%.
Take `O=C(O)C1(c2ccc(-c3ccc(C4CCOCC4)cc3)c(F)c2)CC1` [CHF 5080, 1-[2-fluoro-4′-(tetrahydropyran-4-yl)-biphenyl-4-yl]-cyclopropanecarboxylic acid]: the inhibition at 100 µM on cyclooxygenase-1 (COX-1) (setting [2]) amounted to 0.3%; in test [1], 51.8%.
As for `O=C1CCC(c2ccc(-c3ccc(C4(C(=O)O)CC4)cc3F)cc2)CC1` [CHF 5081, 1-[2-fluoro-4′-(4-oxo-cyclohexyl)-biphenyl-4-yl]-cyclopropanecarboxylic acid], the inhibition at 100 µM on cyclooxygenase-1 (COX-1) (setting [2]) came out at 6.1%; in test [1] it was 52.3%.
In the case of `O=C(O)C1CC1c1ccc(-c2ccc(-c3ccc(O)cc3)cc2)c(F)c1` (centres unmarked) [CHF 5083, 2-(2″-fluoro-4-hydroxy-[1,1′:4′,1″]tert-phenyl-4″-yl)-cyclopropanecarboxylic acid], in test [1], the “% inhibition of Aβ42 release” value was determined as 81.1%.
For `O=C(O)C1(c2ccc(-c3ccc(OC4CCC(C(F)(F)F)CC4)cc3)c(F)c2)CC1` (centres unmarked) [CHF 5096, 1-[2-fluoro-4′-[[4-(trifluoromethyl)cyclohexyl]oxy][1,1′-biphenyl]-4-yl]-cyclopropanecarboxylic acid], the inhibition at 100 µM came out at 0.8% on cyclooxygenase-1 (COX-1) (setting [2]) and 70% in test [1].
Regarding `O=C(O)C1(c2ccc(-c3ccc(-c4ccc(F)cc4)cc3F)c(F)c2)CC1` [CHF 5105, 1-(2,2′,4″-trifluoro[1,1′:4′,1″-tert-phenyl]-4-yl)-cyclopropanecarboxylic acid], the “% COX-1 inhibitory activity” value on cyclooxygenase-1 (COX-1) (setting [2]) stood at 1.9%. Besides, in test [1], the “% inhibition of Aβ42 release” value is 90.7%.
`O=C(O)C1(c2ccc(-c3ccc(-c4ccc(O)cc4)c(F)c3)c(F)c2)CC1` [CHF 5106, 1-(2,3′-difluoro-4″-hydroxy[1,1′:4′,1″-tert-phenyl]-4-yl)-cyclopropane-carboxylic acid]: the “% COX-1 inhibitory activity” value at cyclooxygenase-1 (COX-1) (setting [2]) was 0.0%. Further, the “% inhibition of Aβ42 release” value in test [1] came to 79.9%.
Regarding `O=C(O)C1(c2ccc(-c3ccc(-c4ccc(O)cc4)cc3F)c(F)c2)CC1` [CHF 5107, 1-(2,2′-difluoro-4″-hydroxy[1,1′:4′,1″-tert-phenyl]-4-yl)-cyclopropane-carboxylic acid], the “% COX-1 inhibitory activity” value on cyclooxygenase-1 (COX-1) (setting [2]) came to 1.1%. The “% inhibition of Aβ42 release” value in test [1] was found to be 83.3%.
Regarding `CC(C(=O)O)c1ccc(-c2ccccc2)c(F)c1` (centres unmarked) [Flurbiprofen, reference compound], the results for the inhibition at 100 µM (on cyclooxygenase-1 (COX-1); in test [1]) were 100% and ~25%, respectively.
